Assay results: the supplement of paper PMC8149375

How the values were obtained:
Conditions in all cases: treatment: drug alone; 5 days
[1] = system: 786-O; assay: minimum viability across doses, drug alone, relative to DMSO (fraction); higher = less growth inhibition
Method: (§1)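 Primary HTS: 8 RCC cell lines treated with 8 doses (up to 10 uM) of each library drug alone for 5 days; viability read by CellTiter-Glo and normalised to DMSO. GI50 was fitted with XLfit (4-parameter), AUC is the area under the dose-response curve, and minimum viability is the lowest fraction of DMSO viability across doses.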

[2] = system: UO-31; assay: as above
Method: as §1

[3] = system: A498; assay: as above
Method: as §1

[4] = system: 769-P; assay: as above
Method: as §1

[5] = system: CAKI-1; assay: as above
Method: as §1

[6] = system: SN12C; assay: as above
Method: as §1

[7] = system: TK-10; assay: as above
Method: as §1

[8] = system: ACHN; assay: as above
Method: as §1

[9] = system: 786-O; assay: AUC of dose-response viability curve, drug alone (arbitrary (AUC of normalised viability)); higher = less growth inhibition
Method: as §1

[10] = system: UO-31; assay: as above
Method: as §1

[11] = system: A498; assay: as above
Method: as §1

[12] = system: 769-P; assay: as above
Method: as §1

[13] = system: CAKI-1; assay: as above
Method: as §1

[14] = system: SN12C; assay: as above
Method: as §1

[15] = system: TK-10; assay: as above
Method: as §1

[16] = system: ACHN; assay: as above
Method: as §1

[17] = system: 786-O; assay: GI50, drug alone; higher = less potent
Method: as §1

[18] = system: UO-31; assay: GI50, drug alone; higher = less potent
Method: as §1

[19] = system: A498; assay: GI50, drug alone; higher = less potent
Method: as §1

[20] = system: 769-P; assay: GI50, drug alone; higher = less potent
Method: as §1

[21] = system: CAKI-1; assay: GI50, drug alone; higher = less potent
Method: as §1

[22] = system: SN12C; assay: GI50, drug alone; higher = less potent
Method: as §1

[23] = system: TK-10; assay: GI50, drug alone; higher = less potent
Method: as §1

[24] = system: ACHN; assay: GI50, drug alone; higher = less potent
Method: as §1

SMILES	GI50, drug alone [17] [nM]	GI50, drug alone [24] [nM]	minimum viability across doses [1]	minimum viability across doses [2]	minimum viability across doses [3]	minimum viability across doses [4]	minimum viability across doses [5]	minimum viability across doses [6]	minimum viability across doses [7]	minimum viability across doses [8]	AUC of dose-response viability curve [9]	AUC of dose-response viability curve [10]	AUC of dose-response viability curve [11]	AUC of dose-response viability curve [12]	AUC of dose-response viability curve [13]	AUC of dose-response viability curve [14]	AUC of dose-response viability curve [15]	AUC of dose-response viability curve [16]	GI50, drug alone [18] [nM]	GI50, drug alone [19] [nM]	GI50, drug alone [20] [nM]	GI50, drug alone [21] [nM]	GI50, drug alone [22] [nM]	GI50, drug alone [23] [nM]
Cc1ccc([N+](=O)[O-])cc1S(=O)(=O)N(C)/N=C/c1cnc2ccc(Br)cn12.Cl [PIK-75]	40.2	30.1	0.00345	0.00672	0.0119	0.0087	0.0354	0.00713	0.121	0.00398	1.09	1.71	1.5	1.61	0.988	1.33	1.56	1.01	84	82.1	117	25.8	70	70.5
COc1ncc(-c2ccc3nccc(-c4ccnnc4)c3c2)cc1NS(=O)(=O)c1ccc(F)cc1F	29.6	63.1	0.00239	0.00994	0.283	0.0336	0.0314	0.0986	0.0455	0.0976	1.11	1.49	2.32	1.4	1.08	1.49	1.23	1.46	92	242	84.2	28.9	76.6	36.5
Cc1[nH]c(/C=C2/C(=O)Nc3ccc(S(=O)(=O)N(C)c4cccc(Cl)c4)cc32)c(C)c1C(=O)N1CCN(C)CC1	5220	54.7	0.265	1.15	0.916	0.763	0.425	0.412	0.753	0.247	2.76	4.97	3.89	3.4	3.3	3.01	3.36	2.06	> 10000	> 10000	> 10000	8220	8020	> 10000

The next lines start with results.

GI50, drug alone [17] [nM]	GI50, drug alone [24] [nM]	SMILES	minimum viability across doses [1]	minimum viability across doses [2]	minimum viability across doses [3]	minimum viability across doses [4]	minimum viability across doses [5]	minimum viability across doses [6]	minimum viability across doses [7]	minimum viability across doses [8]	AUC of dose-response viability curve [9]	AUC of dose-response viability curve [10]	AUC of dose-response viability curve [11]	AUC of dose-response viability curve [12]	AUC of dose-response viability curve [13]	AUC of dose-response viability curve [14]	AUC of dose-response viability curve [15]	AUC of dose-response viability curve [16]	GI50, drug alone [18] [nM]	GI50, drug alone [19] [nM]	GI50, drug alone [20] [nM]	GI50, drug alone [21] [nM]	GI50, drug alone [22] [nM]	GI50, drug alone [23] [nM]
3760	1790	CNC(=O)c1cc(Oc2ccc(NC(=O)Nc3cc(C(C)(C)C)nn3-c3ccc4ncccc4c3)c(F)c2)ccn1 [DCC-2036 (Rebastinib)]	0.359	0.00743	0.0163	0.752	0.104	0.0299	0.0459	0.0439	2.8	4.08	3.2	3.43	2.63	2.95	2.94	2.92	1720	7590	> 10000	1250	2920	2140
> 10000	> 10000	Nc1nccc(Oc2ccc(NC(=O)c3c[nH]cc(-c4ccc(F)cc4)c3=O)cc2F)c1Cl	0.607	0.00247	0.973	0.951	0.716	0.711	0.689	0.649	2.73	4.74	4.08	3.52	3.45	3.25	2.97	3.5	3800	> 10000	> 10000	> 10000	> 10000	> 10000
